Entries after “also recorded” stand apart in the source; their conditions may differ. Read-outs that look alike come from different tables or passages of the source.
How the values were obtained:
mushroom tyrosinase [1] = experiment: Mushroom tyrosinase inhibitory assay (L-tyrosine or L-DOPA as substrate); type: biochemical, Agaricus bisporus; conditions: for IC50: mean ± SEM of triplicate experiments; for Tyrosinase inhibitory activity (in words) / Inhibitory effect at the concentration of 200 µM: mushroom tyrosinase; for Tyrosinase inhibitory activity (in words): L-tyrosine and L-DOPA
Protocol: Tyrosinase inhibitory activity assay was performed using mushroom tyrosinase as described previously, with minor modification, [36]. […] […] The reaction mixtures were incubated at 37 °C for 30 min. After that, the amount of dopachrome produced in each well was measured by spectrophotometric analysis at 492 nm (OD492) using a microplate reader.

mushroom tyrosinase [2] = experiment: Enzyme kinetic analysis with tyrosinase (Lineweaver-Burk and Dixon plots); type: biochemical, Agaricus bisporus; conditions: L-DOPA as substrate
Protocol: To determine the kinetic mechanisms of inhibition, two complimentary kinetics methods were used: Lineweaver–Burk and Dixon plots, [38], [39]. Using Lineweaver-Burk plots (double reciprocal plots), the inhibition type of BID3 was determined using various concentrations of L-DOPA (0.125, 0.25, 0.5, and 1 mM), as substrates, in the absence and presence of various concentrations of BID3 (1, 2, and 4 μM). A Dixon plot (single reciprocal plots) for tyrosinase inhibition was obtained in the presence of various concentrations of L-DOPA (0.125, 0.25, 0.5, and 1 mM). The concentrations of BID3 were 1, 2, and 4 µM. The enzymatic procedures consisted of the previously described tyrosinase assay methods. The inhibition constant (Ki) was determined from the interpretation of Dixon plots.

B16F10 melanoma cells [3] = experiment: Cell viability assay (EZ-Cytox); type: cell-based, Murine; conditions: 1–20 µM, 24 h and 48 h
Protocol: Murine melanoma B16F10 cells were purchased from the Korean Cell Line Bank (KCLB, Seoul, Korea) and cultured in DMEM supplemented with 10% FBS and 1% streptomycin, and then incubated at 37 °C, humidified with 5% atmospheric CO2. Cell viability analyses were performed as previously described. Briefly, cells seeded at a density of 1 × 10^4 cells/well in a 96-well plate for 24 h. On the following day, the cells were exposed to different concentrations of BID3 and incubated for 24 or 48 h, respectively. Then, 10 µL EZ-Cytox solution was added to each well and the cells were incubated for 2–4 h. Absorbance was determined using ELISA at a wavelength of 450 nm. Each assay was performed in triplicate.

B16F10 melanoma cells [4] = experiment: Melanin contents assay in α-MSH and IBMX-stimulated cells; type: cell-based, Murine; conditions: BID3 1, 5, and 20 µM (methods: 1, 5, and 10 µM), 48 h
Protocol: Melanin content was determined as described previously. B16F10 melanoma cells (2 × 10^5 cells/well) were seeded in 6-well culture plates. […] After washed twice with PBS, the cells were detached by incubation in Trypsin/EDTA, and the pellets were dissolved in 100 µL of 1 N NaOH, and then incubated at 60 °C for 1 h and mixed to solubilize the melanin. The melanin contents were determined by measuring absorbance at 405 nm by using the ELISA reader (TECAN, Sunrise, Austria). The melanin content was calculated using the following equation: (Δsample/Δcontrol) × 100%. All determinations were performed in triplicate.

[5] = biological target: T1, cellular tyrosinase of B16F10 cells (Mus musculus, UniProt P11344); experiment: Cellular tyrosinase activity in α-MSH and IBMX-stimulated cells; type: cell-based, Murine; conditions: BID3 1, 5, and 20 µM (methods: 1, 5, and 10 µM), 48 h
T1 construct: endogenous in cells; host or cells: B16F10 melanoma cells
T1 sequence (P11344 19-533): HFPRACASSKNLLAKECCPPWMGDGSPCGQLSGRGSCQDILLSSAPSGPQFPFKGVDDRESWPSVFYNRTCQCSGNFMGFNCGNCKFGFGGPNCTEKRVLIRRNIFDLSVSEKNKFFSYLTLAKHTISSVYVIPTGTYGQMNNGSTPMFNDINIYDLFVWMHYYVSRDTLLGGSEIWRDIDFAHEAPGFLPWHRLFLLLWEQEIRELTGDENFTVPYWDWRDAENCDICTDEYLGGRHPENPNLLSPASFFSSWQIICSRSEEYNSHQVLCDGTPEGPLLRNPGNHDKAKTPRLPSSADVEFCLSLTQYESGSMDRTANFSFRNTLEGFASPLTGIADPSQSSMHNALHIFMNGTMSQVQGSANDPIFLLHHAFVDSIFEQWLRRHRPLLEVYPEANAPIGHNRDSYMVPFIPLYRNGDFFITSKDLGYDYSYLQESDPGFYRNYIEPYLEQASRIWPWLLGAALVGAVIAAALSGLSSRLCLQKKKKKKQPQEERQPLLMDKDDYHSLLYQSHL
Protocol: Cellular tyrosinase activity was assessed as described previously, with slight modifications, [45]. Briefly, 2 × 10^5/cells were plated in 6-well dishes and incubated overnight. […] After being rinsed twice with PBS, the cells were lysed with 100 µL lysis solution containing 50 mM phosphate buffer (pH 6.5), 0.1 mM phenylmethylsulfonylfluoride (PMSF), and 1% Triton X-100 and frozen at −80 °C for 30 min. Lysates were thawed and centrifuged at 12,000 rpm for 30 min at 4 °C. […] After incubation at 37 °C for 30 min, the optical density at 492 nm was measured using an ELISA reader (TECAN, Salzburg, Austria). The protein concentration was determined using BCA protein assay reagent using […] (Thermo Scientific, Rockford, IL, USA).

tyrosinase = conditions: cited from earlier work
[6] = L-DOPA substrate, read-out: IC50 (μM), L-DOPA as substrate (diphenolase activity)
[7] = L-tyrosine substrate, read-out: IC50 (μM), L-tyrosine as substrate (monophenolase activity)

SMILES: O=C1/C(=C/c2ccc(O)cc2)Cc2ccccc21 [BID1, (E)-2-(4-Hydroxybenzylidene)-2,3-dihydro-1H-inden-1-one]
- IC50 (mushroom tyrosinase [1]; [6]): 130 ± 5.39 µM
- IC50 (mushroom tyrosinase [1]; [7]): 39.7 ± 3.71 µM

SMILES: O=C1/C(=C/c2ccc(O)c(O)c2)Cc2ccccc21 [BID2, (E)-2-(3,4-Dihydroxybenzylidene)-2,3-dihydro-1H-inden-1-one]
- IC50 (mushroom tyrosinase [1]; [6]): 52.9 ± 2.62 µM
- IC50 (mushroom tyrosinase [1]; [7]): 41.3 ± 3.03 µM

SMILES: O=C1/C(=C/c2ccc(O)cc2O)Cc2ccccc21 [BID3, (E)-2-(2,4-Dihydroxybenzylidene)-2,3-dihydro-1H-inden-1-one]
- IC50 (mushroom tyrosinase [1]; [6]): 1.39 ± 4e-05 µM
- IC50 (mushroom tyrosinase [1]; [7]): 0.034 ± 0.00224 µM
- Ki (mushroom tyrosinase [2]; Dixon plot): 2.4 µM
- Type of tyrosinase inhibition (mushroom tyrosinase [2]; Lineweaver-Burk and Dixon plots): mixed-type inhibition; also recorded: mixed-type inhibitor
- Cytotoxic effect on B16F10 cells (B16F10 melanoma cells [3]): no significant cytotoxic effect; also recorded: without inducing cytotoxicity
- Melanin contents (B16F10 melanoma cells [4]): decreased; also recorded: concentration dependently decrease
- Cellular tyrosinase activity [5]: inhibited; also recorded: concentration dependently decrease

SMILES: COc1cc(/C=C2\Cc3ccccc3C2=O)ccc1O [BID4, (E)-2-(4-Hydroxy-3-methoxybenzylidene)-2,3-dihydro-1H-inden-1-one]
- IC50 (mushroom tyrosinase [1]; [6]): > 200 µM
- IC50 (mushroom tyrosinase [1]; [7]): 73.5 ± 5.78 µM
- Tyrosinase inhibitory activity (in words) (mushroom tyrosinase [1]): moderate tyrosinase inhibitory activity

SMILES: CCOc1cc(/C=C2\Cc3ccccc3C2=O)ccc1O [BID5, (E)-2-(3-Ethoxy-4-hydroxybenzylidene)-2,3-dihydro-1H-inden-1-one]
- IC50 (mushroom tyrosinase [1]; [6]): > 200 µM
- IC50 (mushroom tyrosinase [1]; [7]): > 200 µM
- melting point: 135.8 to 136.4 °C

SMILES: COc1ccc(/C=C2\Cc3ccccc3C2=O)cc1O [BID6, (E)-2-(3-Hydroxy-4-methoxybenzylidene)-2,3-dihydro-1H-inden-1-one]
- IC50 (mushroom tyrosinase [1]; [6]): 50.8 ± 2.16 µM
- IC50 (mushroom tyrosinase [1]; [7]): 5 ± 0.91 µM

SMILES: COc1ccc(/C=C2\Cc3ccccc3C2=O)cc1 [BID7, (E)-2-(4-Methoxybenzylidene)-2,3-dihydro-1H-inden-1-one]
- IC50 (mushroom tyrosinase [1]; [6]): > 200 µM
- IC50 (mushroom tyrosinase [1]; [7]): > 200 µM

SMILES: COc1ccc(/C=C2\Cc3ccccc3C2=O)cc1OC [BID8, (E)-2-(3,4-Dimethoxybenzylidene)-2,3-dihydro-1H-inden-1-one]
- IC50 (mushroom tyrosinase [1]; [6]): > 200 µM
- IC50 (mushroom tyrosinase [1]; [7]): > 200 µM
- melting point: 176.5 to 177.2 °C

SMILES: COc1ccc(/C=C2\Cc3ccccc3C2=O)c(OC)c1 [BID9, (E)-2-(2,4-Dimethoxybenzylidene)-2,3-dihydro-1H-inden-1-one]
- IC50 (mushroom tyrosinase [1]; [6]): 96.9 ± 9.78 µM
- IC50 (mushroom tyrosinase [1]; [7]): > 200 µM

SMILES: COc1cc(/C=C2\Cc3ccccc3C2=O)cc(OC)c1OC [BID10, (E)-2-(3,4,5-Trimethoxybenzylidene)-2,3-dihydro-1H-inden-1-one]
- IC50 (mushroom tyrosinase [1]; [6]): > 200 µM
- IC50 (mushroom tyrosinase [1]; [7]): > 200 µM
- melting point: 164.4 to 165.2 °C

SMILES: COc1cc(/C=C2\Cc3ccccc3C2=O)cc(OC)c1O [BID11, (E)-2-(4-Hydroxy-3,5-dimethoxybenzylidene)-2,3-dihydro-1H-inden-1-one]
- IC50 (mushroom tyrosinase [1]; [6]): > 200 µM
- IC50 (mushroom tyrosinase [1]; [7]): 75.2 ± 2.24 µM
- Tyrosinase inhibitory activity (in words) (mushroom tyrosinase [1]): moderate tyrosinase inhibitory activity
- melting point: 190.2 to 191.1 °C

SMILES: O=C1/C(=C/c2ccc(O)c(Br)c2)Cc2ccccc21 [BID12, (E)-2-(3-Bromo-4-hydroxybenzylidene)-2,3-dihydro-1H-inden-1-one]
- IC50 (mushroom tyrosinase [1]; [6]): > 200 µM
- IC50 (mushroom tyrosinase [1]; [7]): > 200 µM
- melting point: 225 to 226.2 °C

SMILES: O=C1/C(=C/c2cc(Br)c(O)c(Br)c2)Cc2ccccc21 [BID13, (E)-2-(3,5-Dibromo-4-hydroxybenzylidene)-2,3-dihydro-1H-inden-1-one]
- IC50 (mushroom tyrosinase [1]; [6]): 75.3 ± 7.94 µM
- IC50 (mushroom tyrosinase [1]; [7]): > 200 µM
- melting point: 267.4 to 268.1 °C

SMILES: O=C(O)/C=C/c1ccccc1 [Cinnamic acid, trans-cinnamic acid, reference compound]
- Inhibitory effect at the concentration of 200 µM (mushroom tyrosinase [1]): no inhibitory effect
- IC50 (mushroom tyrosinase [1]; [6]): > 200 µM
- IC50 (mushroom tyrosinase [1]; [7]): > 200 µM
- Reported type of tyrosinase inhibition (tyrosinase): mixed-mode tyrosinase inhibitor

SMILES: O=c1cc(CO)occ1O [Kojic acid, kojic acid]
- Reported type of tyrosinase inhibition (tyrosinase): competitive type inhibitor

SMILES: O=C(O)c1ccccc1C(=O)O [Phthalic acid, phthalic acid, reference compound]
- Inhibitory effect at the concentration of 200 µM (mushroom tyrosinase [1]): no inhibitory effect
- IC50 (mushroom tyrosinase [1]; [6]): > 200 µM
- IC50 (mushroom tyrosinase [1]; [7]): > 200 µM
- Reported type of tyrosinase inhibition (tyrosinase): mixed-mode tyrosinase inhibitor
